# Results from patent EP4768484A1, “HETEROCYCLIC FUSED RING COMPOUND, AND COMPOSITION AND USE THEREOF” (Shenzhen TargetRx, Inc., priority 2023, dated 2025).
# Tests used:
# Assay type in all cases: cell-based
# [1] = tested on: K562 cells; test: Cell growth inhibitory activity assay (CellTiter-Glo), K562 cells; conditions: Homo sapiens, 72 h, CTG cell viability
# Procedure, shortened: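 Growth inhibition of human K562 cells, sourced from Nanjing Kebai (CBP60529), was assessed with Promega's CellTiter-Glo kit, which measures viability through ATP quantification. Log-phase cells went into the inner wells of 96-well plates, with PBS in edge wells, incubated overnight at 37 °C and 5% CO2, then exposed to serially diluted compound for 72 h.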
# [2] = biological target: T1, Ba/F3 BCR-ABL1 WT (Homo sapiens, UniProt P00519+P11274); test: Cell growth inhibitory activity assay (CellTiter-Glo), Ba/F3 BCR-ABL1 WT cells; conditions: 72 h, CTG cell viability
# T1 construct: BCR (N-terminal fusion partner of the oncoprotein); expressed in transfected cells; host or cells: Ba/F3 (lentiviral transduction, monoclonal line)
# Procedure, shortened: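 Compound dilutions applied for 72 h (37 °C, 5% CO2) to overnight-plated Ba/F3 cells, parental or engineered to express WT/mutant BCR-ABL1. ATP-based CellTiter-Glo luminescence read, referenced to day-0 viability and 0.5% DMSO wells; IC50 fitted by four-parameter logistic curve.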
# [3] = tested on: Ba/F3 parental cells; test: Cell growth inhibitory activity assay (CellTiter-Glo), Ba/F3 parental cells; conditions: Mus musculus, BaF3, 72 h, CTG cell viability, read-out: IC50 Ba/F3 BCR-ABL1 Parental
# Procedure, shortened: (§1)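 Growth inhibition is measured in engineered Ba/F3 cells carrying mutant human BCR-ABL1 and in parental Ba/F3. Compounds in dilution series are applied for 72 h, then cellular ATP is quantified with CellTiter-Glo, normalised using a T0 baseline plate, and IC50 derived by nonlinear regression.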
# [4] = biological target: T2, Ba/F3 BCR-ABL1 T315I (Homo sapiens, UniProt P00519+P11274, T315I); test: Cell growth inhibitory activity assay (CellTiter-Glo), Ba/F3 BCR-ABL1 T315I cells; conditions: 72 h, CTG cell viability
# T2 construct: BCR (N-terminal fusion partner of the oncoprotein); expressed in transfected cells; host or cells: Ba/F3 (lentiviral transduction, monoclonal line)
# Procedure, shortened: as §1
IC50 [1],Compound,IC50 [2],IC50 [3],IC50 [4]
≤ 5 nM,"C[C@@H]1COCc2nc3cc(C(=O)Nc4ccc(OC(F)(F)Cl)cc4)cc(-c4ccc5c(c4)C(=O)N(C)C5=O)c3n21 [T-62, (R)-N-(4-(chlorodifluoromethoxy)phenyl)-4-methyl-6-(2-methyl-1,3-dioxoisoindolin-5-yl)-3,4-dihydro-1H-benzo[4,5]imidazo[2,1-c][1,4]oxazine-8-carboxamide]",5 to 50 nM,> 1000 nM,50 to 1000 nM
≤ 5 nM,C[C@@H]1COCc2nc3cc(C(=O)Nc4ccc(OC(F)(F)Cl)cc4)cc(-c4cnc5c(c4)-c4nn(-c6cccnc6)cc4C5)c3n21 [T-63],≤ 5 nM,> 1000 nM,> 1000 nM
≤ 5 nM,C[C@@H]1COCc2nc3cc(C(=O)Nc4ccc(OC(F)(F)Cl)cc4)cc(-c4cnc5c(c4)-c4nn(-c6ccncc6)cc4C5)c3n21 [T-64],≤ 5 nM,> 1000 nM,> 1000 nM
≤ 5 nM,"COc1nc(OC)nc(-n2cc3c(n2)-c2cc(-c4cc(C(=O)Nc5ccc(OC(F)(F)Cl)cc5)cc5nc6n(c45)[C@H](C)COC6)cnc2C3)n1 [T-70, (R)-N-(4-(chlorodifluoromethoxy)phenyl)-6-(2-(4,6-dimethoxy-1,3,5-triazin-2-yl)-2,4-dihydropyrazolo[3',4':3,4]cyclopenta[1,2-b]pyridin-7-yl)-4-methyl-3,4-dihydro-1H-benzo[4,5]imidazo[2,1-c][1,4]oxazine-8-carboxamide]",≤ 5 nM,> 1000 nM,5 to 50 nM
≤ 5 nM,"C[C@@H]1COCc2nc3cc(C(=O)Nc4ccc(OC(F)(F)Cl)cc4)cc(-c4cnc5c(c4)-c4nn(-c6nccc(C(F)(F)F)n6)cc4C5)c3n21 [T-72, (R)-N-(4-(chlorodifluoromethoxy)phenyl)-4-methyl-6-(2-(4-(trifluoromethyl)pyrimidin-2-yl)-2,4-dihydropyrazolo[3',4':3,4]cyclopenta[1,2-b]pyridin-7-yl)-3,4-dihydro-1H-benzo[4,5]imidazo[2,1-c][1,4]oxazine-8-carboxamide]",≤ 5 nM,> 1000 nM,≤ 5 nM
≤ 5 nM,"Cc1cnc(-n2cc3c(n2)-c2cc(-c4cc(C(=O)Nc5ccc(OC(F)(F)Cl)cc5)cc5nc6n(c45)[C@H](C)COC6)cnc2C3)nc1 [T-74, (R)-N-(4-(chlorodifluoromethoxy)phenyl)-4-methyl-6-(2-(5-methylpyrimidin-2-yl)-2,4-dihydropyrazolo[3',4':3,4]cyclopenta[1,2-b]pyridin-7-yl)-3,4-dihydro-1H-benzo[4,5]imidazo[2,1-c][1,4]oxazine-8-carboxamide]",≤ 5 nM,> 1000 nM,≤ 5 nM
≤ 5 nM,"Cc1cc(C(F)(F)F)nc(-n2cc3c(n2)-c2cc(-c4cc(C(=O)Nc5ccc(OC(F)(F)Cl)cc5)cc5nc6n(c45)[C@H](C)COC6)cnc2C3)n1 [T-75, (R)-N-(4-(chlorodifluoromethoxy)phenyl)-4-methyl-6-(2-(4-methyl-6-(trifluoromethyl)pyrimidin-2-yl)-2,4-dihydropyrazolo[3',4':3,4]cyclopenta[1,2-b]pyridin-7-yl)-3,4-dihydro-1H-benzo[4,5]imidazo[2,1-c][1,4]oxazine-8-carboxamide]",≤ 5 nM,> 1000 nM,≤ 5 nM
≤ 5 nM,"COc1cnc(-n2cc3c(n2)-c2cc(-c4cc(C(=O)Nc5ccc(OC(F)(F)Cl)cc5)cc5nc6n(c45)[C@H](C)COC6)cnc2C3)nc1 [T-77, (R)-N-(4-(chlorodifluoromethoxy)phenyl)-6-(2-(5-methoxypyrimidin-2-yl)-2,4-dihydropyrazolo[3',4':3,4]cyclopenta[1,2-b]pyridin-7-yl)-4-methyl-3,4-dihydro-1H-benzo[4,5]imidazo[2,1-c][1,4]oxazine-8-carboxamide]",≤ 5 nM,> 1000 nM,≤ 5 nM
≤ 5 nM,"C[C@@H]1COCc2nc3cc(C(=O)Nc4ccc(OC(F)(F)Cl)cc4)cc(-c4cnc5c(c4)-c4nn(-c6ncc(C(F)(F)F)cn6)cc4C5)c3n21 [T-79, (R)-N-(4-(chlorodifluoromethoxy)phenyl)-4-methyl-6-(2-(5-(trifluoromethyl)pyrimidin-2-yl)-2,4-dihydropyrazolo[3',4':3,4]cyclopenta[1,2-b]pyridin-7-yl)-3,4-dihydro-1H-benzo[4,5]imidazo[2,1-c][1,4]oxazine-8-carboxamide]",≤ 5 nM,> 1000 nM,≤ 5 nM
≤ 5 nM,"C[C@@H]1COCc2nc3cc(C(=O)Nc4ccc(OC(F)(F)Cl)cc4)cc(-c4cnc5c(c4)-c4nn(-c6ncc(-c7ccccc7)cn6)cc4C5)c3n21 [T-80, (R)-N-(4-(chlorodifluoromethoxy)phenyl)-4-methyl-6-(2-(5-phenylpyrimidin-2-yl)-2,4-dihydropyrazolo[3',4':3,4]cyclopenta[1,2-b]pyridin-7-yl)-3,4-dihydro-1H-benzo[4,5]imidazo[2,1-c][1,4]oxazine-8-carboxamide]",≤ 5 nM,> 1000 nM,≤ 5 nM
≤ 5 nM,"C[C@@H]1COCc2nc3cc(C(=O)Nc4ccc(OC(F)(F)Cl)cc4)cc(-c4cnc5c(c4)-c4nn(-c6nccc(-c7ccccc7)n6)cc4C5)c3n21 [T-81, (R)-N-(4-(chlorodifluoromethoxy)phenyl)-4-methyl-6-(2-(4-phenyloyrimidin-2-yl)-2,4-dihydropyrazolo[3',4':3,4]cyclopenta[1,2-b]pyridin-7-yl)-3,4-dihydro-1H-benzo[4,5]imidazo[2,1-c][1,4]oxazine-8-carboxamide]",≤ 5 nM,> 1000 nM,≤ 5 nM
≤ 5 nM,"C[C@@H]1COCc2nc3cc(C(=O)Nc4ccc(OC(F)(F)Cl)cc4)cc(-c4cnc5c(c4)-c4nn(-c6ncc7ccccc7n6)cc4C5)c3n21 [T-82-B, (R)-N-(4-(chlorodifluoromethoxy)phenyl)-4-methyl-6-(2-(quinazolin-2-yl)-2,4-dihydropyrazolo[3',4':3,4]cyclopenta[1,2-b]pyridin-7-yl)-3,4-dihydro-1H-benzo[4,5]imidazo[2,1-c][1,4]oxazine-8-carboxamide]",≤ 5 nM,> 1000 nM,≤ 5 nM
≤ 5 nM,"C[C@@H]1COCc2nc3cc(C(=O)Nc4ccc(OC(F)(F)Cl)cc4)cc(-c4cnc5c(c4)-c4nn(-c6ncc7ccsc7n6)cc4C5)c3n21 [T-83, (R)-N-(4-(chlorodifluoromethoxy)phenyl)-4-methyl-6-(2-(thieno[2,3-d]pyrimidin-2-yl)-2,4-dihydropyrazolo[3',4':3,4]cyclopenta[1,2-b]pyridin-7-yl)-3,4-dihydro-1H-benzo[4,5]imidazo[2,1-c][1,4]oxazine-8-carboxamide]",≤ 5 nM,> 1000 nM,≤ 5 nM
≤ 5 nM,"C[C@@H]1COCc2nc3cc(C(=O)Nc4ccc(OC(F)(F)Cl)cc4)cc(-c4cnc5c(c4)-c4nn(-c6ncc7c(ccn7C)n6)cc4C5)c3n21 [T-84, (R)-N-(4-(chlorodifluoromethoxy)phenyl)-4-methyl-6-(2-(5-methyl-5H-pyrrolo[3,2-d]pyrimidin-2-yl)-2,4-dihydropyrazolo[3',4':3,4]cyclopenta[1,2-b]pyridin-7-yl)-3,4-dihydro-1H-benzo[4,5]imidazo[2,1-c][1,4]oxazine-8-carboxamide]",≤ 5 nM,> 1000 nM,≤ 5 nM
≤ 5 nM,"C[C@@H]1COCc2nc3cc(C(=O)Nc4ccc(OC(F)(F)Cl)cc4)cc(-c4cnc5c(c4)-c4nn(-c6ncc7ccn(C)c7n6)cc4C5)c3n21 [T-85, (R)-N-(4-(chlorodifluoromethoxy)phenyl)-4-methyl-6-(2-(7-methyl-7H-pyrrolo[2,3-d]pyrimidin-2-yl)-2,4-dihydropyrazolo[3',4':3,4]cyclopenta[1,2-b]pyridin-7-yl)-3,4-dihydro-1H-benzo[4,5]imidazo[2,1-c][1,4]oxazine-8-carboxamide]",≤ 5 nM,> 1000 nM,≤ 5 nM
≤ 5 nM,"C[C@@H]1COCc2nc3cc(C(=O)Nc4ccc(OC(F)(F)Cl)cc4)cc(-c4cnc5c(c4)-c4nn(-c6ncc7cccnc7n6)cc4C5)c3n21 [T-86, (R)-N-(4-(chlorodifluoromethoxy)phenyl)-4-methyl-6-(2-(pyrido[2,3-d]pyrimidin-2-yl)-2,4-dihydropyrazolo[3',4':3,4]cyclopenta[1,2-b]pyridin-7-yl)-3,4-dihydro-1H-benzo[4,5]imidazo[2,1-c][1,4]oxazine-8-carboxamide]",≤ 5 nM,> 1000 nM,≤ 5 nM

Compound,IC50 [1],IC50 [2],IC50 [3],IC50 [4]
"C[C@@H]1COCc2nc3cc(C(=O)Nc4ccc(OC(F)(F)Cl)cc4)cc(-c4cnc5c(c4)-c4c(cnn4-c4ncc6ccccc6n4)C5)c3n21 [T-82-A, (R)-N-(4-(chlorodifluoromethoxy)phenyl)-4-methyl-6-(1-(guinazolin-2-yl)-1,4-dihvdropyrazolo[3',4':3,4]cyclopenta[1,2-b]pyridin-7-yl)-3,4-dihydro-1H-benzo[4,5]imidazo[2,1-c][1,4]oxazine-8-carboxamide]",≤ 5 nM,≤ 5 nM,> 1000 nM,5 to 50 nM
